Reference: patent US20100305214A1, “Use of a Monoterpene to Increase Tissue Repair” (Aisa Therapeutics, priority 2007, published 2010)
Blank lines part the entries; values can stand above or below the molecule they belong to.

Columns and labels:
colon inflammation = assay: Preventive anti-inflammatory effects in a rat colitis model (TNBS); type: in vivo; conditions: for average lengths of the colons vs group TNBS/Control / microscopic score of the colons: 6 days after induction; for average macroscopic score of the colons (Mean ± ESM): colons removed 6 days after induction, n = 6; for rats average weights vs group TNBS/Control: J6
Method: Average macroscopic and microscopic scores of the colons sampled 6 days after the induction of colon inflammation were compared.
Colon inflammation was induced by a unique rectal administration of a 2,4,6-trinitrobenzen-sulfonic acid solution (TNBS, Fluka, France). TNBS was dissolved in 40° alcohol at a concentration of 50 mg/ml. Animals were anaesthetised intraperitoneally by 2 mg/kg of Calmivet (Vetoquinol, Lure, France) and 50 mg/kg of Ketamine (Ketamine 1000, Virbac, Carros, France). 0.4 ml of the TNBS solution was administered rectally and the rats were maintained during at least 30 minutes to avoid the releasing of the TNBS.
Kruskal-Wallis test followed possibly by the Mann-Whitney test was used to compare the different studied variables of the treated groups by comparison with the groups “Control” and “TNBS/Control”. Significativity threshold was settled at P<0.05.

[1] = tested on: repaired extensor tendon, wound contraction, epithelialization; conditions: in vivo; cited from earlier work
[2] = at doses which may have clinical activity; cited from earlier work
isoprenylation enzymes = conditions: cited from earlier work
skin inflammation = assay: Mouse chronic skin inflammation model (TPA); type: in vivo; conditions: 10 mg/kg/day topical, 10 days
Method: 100 μl of a TPA solution were applied daily on the dorsal surfaces of mice during seven days (from J4 to J10) at a concentration of 0.2 mg/ml.
The daily topical treatment begun 3 days before the induction of skin inflammation (=Ji) and was continued 7 days after the induction of skin inflammation (=J10).
From J4 to J10, the assayed products were applied 30 minutes before the application of TPA on the same skin area.
The mice were anaesthetized by intraperitoneal injection of a mixture of Ketamine (Ketamine 1000, Virbac, Carros, France) and Xylazine (Rompun 2%, Bayer Healthcare, Kiel, Allemagne). (2/3-1/3 vol/vol) at a dosis of 8 ml/kg. Blood (1 ml) was punctured intracardiacally after the last treatment. Blood samples were stored at +4° C. during 20 to 30 minutes then centrifuged at 1500 g for 15 minutes. Serums were removed, freezed at −20° C. and stored at −80° C. until pro-inflammatory cytokines dosage.
Dorsal skin samples were removed, fixed and stored in formaldehyde (Rotr-Histofix 4%, Carl Roth, Karlsruhe, Allemagne) until histopathological analysis.
Kruskal-Wallis test followed possibly by the Mann-Whitney test was used to compare the different studied variables of the treated groups by comparison with the groups “Control” and “TPA+Control”. Significativity threshold was settled at P<0.05.

wound healing process = assay: Healing after scarification of the skin in hairless Skh-1 mice; conditions: 10 mg/kg/day topical in maize oil, 8 days
Method: 6 female mice hairless Skh-1 with an average weight of 20-25 g were used.
Each mouse was submitted to a scarification of the skin on each flank.
The daily topical treatment begun 1 hour before the scarification and was continued 8 days after the scarification.
Daily observations and photographs were performed in order to follow the healing process.

rats average weights vs group TNBS/Control (colon inflammation; Ibuprofen 50 mg/kg daily oral): not significantly different
Molecule: CC(C)Cc1ccc([C@H](C)C(=O)O)cc1 [Ibuprofen, (S)-(+)-Ibuprofen, reference compound]
average macroscopic scores of the colons vs groups TNBS/Control and TNBS/Limonene 100 (colon inflammation; 50 mg/kg daily oral): significantly lower
average lengths of the colons vs group TNBS/Control (colon inflammation; 50 mg/kg daily oral): significantly lower
average macroscopic score of the colons (Mean ± ESM) (colon inflammation; 50 mg/kg daily oral): 4.7 ± 2.7
breaking strength of the repaired extensor tendon, wound contraction, and epithelialization [1]: reduce

Molecule: C=C(C)[C@H]1CC=C(C)CC1 [Limonene, (4R)-1-methyl-4-isopropenylcyclohex-1-ene]
tolerance in cancer patients [2]: well tolerated
average macroscopic scores of the colons vs groups TNBS/Control and TNBS/Limonene 100 (colon inflammation; 10 mg/kg daily oral): significantly lower
average lengths of the colons vs group TNBS/Control (colon inflammation; 10 mg/kg daily oral): significantly lower
microscopic score of the colons (colon inflammation; 10 mg/kg daily oral): 2
average macroscopic score of the colons (Mean ± ESM) (colon inflammation; 10 mg/kg daily oral): 6.5 ± 1.3
average lengths of the colons vs group TNBS/Control (colon inflammation; 100 mg/kg daily oral): significantly lower
microscopic score of the colons (colon inflammation; 100 mg/kg daily oral): 4
average macroscopic score of the colons (Mean ± ESM) (colon inflammation; 100 mg/kg daily oral): 10.7 ± 2.7
rats average weights vs group TNBS/Control (colon inflammation; Limonene 10 mg/kg daily oral): not significantly different
rats average weights vs group TNBS/Control (colon inflammation; Limonene 100 mg/kg daily oral): not significantly different
circulating TNF-α level (colon inflammation; at a concentration five times inferior to the concentrations of Ibuprofen): decreased
post-inflammatory tissue repair, compared with ibuprofen (colon inflammation; oral administration, colons sampled 6 days after induction): induced post-inflammatory tissue repair
inhibition of the isoprenylation enzymes (isoprenylation enzymes): weak inhibitors

Molecule: C=C(C)[C@@H]1CC=C(CO)CC1 [Perillyl alcohol, (S)-4-Isopropenyl-1-cyclohexenylmethanol]
average macroscopic score of skin inflammation vs group TPA+Limonene (skin inflammation): significantly lower
average macroscopic scores of skin inflammation vs group TPA+control (skin inflammation): significantly lower
average microscopic scores of skin inflammation vs group TPA+control (skin inflammation): significantly lower
average serum level of IL-1β vs TPA+control group (skin inflammation): tendency to be significantly lower
average serum level of IL-6 vs TPA+control group (skin inflammation): significantly lower
average serum level of TNF-α vs TPA+control group (skin inflammation): significantly lower
histopathological analysis of the skin samples (skin inflammation): skins were little inflammatory; showed non-specific inflammatory skin lesions without epidermis ulceration and with an inflammatory rarely marked
Average serum levels of IL-1β (Mean ± ESM) (skin inflammation; TPA-treated mice): 5.3 ± 1.7 pg/mL
Average serum levels of IL-6 (Mean ± ESM) (skin inflammation; TPA-treated mice): 13.0 ± 3.8 pg/mL
Average serum levels of TNF-α (Mean ± ESM) (skin inflammation; TPA-treated mice): 80.6 ± 24.7 pg/mL
wound healing process in comparison with corn oil alone (wound healing process): much better results
wound healing process in comparison with limonene (wound healing process): better results
IC50 values, isoprenylation enzymes (isoprenylation enzymes): low mM range

Molecule: C=C(C)[C@@H]1CC=C(C(=O)O)CC1 [perillic acid, reference compound]
IC50 values, isoprenylation enzymes (isoprenylation enzymes): low mM range

Molecule: S-limonene [reference compound]
inhibition of the isoprenylation enzymes (isoprenylation enzymes): weak inhibitors
